{
  "source": "patent US20170315129A1",
  "about": "“CANCER CELL DETECTION METHOD USING LIVING BODY-DERIVED CELLS OF BIOLOGICAL ORIGIN” (Hirosaki University, priority 2014, published 2017)",
  "key": {"[1]": {"test_system": "ascites cells obtained during an operation of a patient with ovarian cancer (serous adenocarcinoma)", "test": "Live-cell fluorescence imaging of cells in peritoneal washing, ovarian cancer patient (Example 1)", "type": "cell-based, human", "settings": "100 μM 2-NBDLG and 20 μM 2TRLG in KRB, 5 minutes 37° C., FIG. 2B", "method": "Immediately after the start of laparotomy for ovarian cancer (serous adenocarcinoma), the peritoneal cavity was washed with physiological saline for the purpose of collecting an ascitic fluid. A surplus portion of the resulting peritoneal washing was transferred into a 50 mL centrifuge tube. Subsequently, it was centrifuged at 1500 G for 2 minutes at room temperature, the supernatant was removed by decantation, and the pellet was dispersed by adding 2 mL of Krebs Ringer Buffer (KRB solution, see below) to obtain an ascites-cell suspension.\nNaCl 129.0 mM, KCl 4.75 mM, KH2PO41.19 mM, MgSO4.7H2O 1.19 mM, CaC12.2H2O 1.0 mM, NaHCO35.02 mM, D-Glucose 5.6 mM, HEPES 10.0 mM (an adequate amount of 1M NaOH was added to adjust the pH to 7.35). […]\nFor fluorescence observation, observation and image acquisition were performed as follows after mounting the glass pate on a glass-slide holder dedicated for an all-in-one fluorescence microscope BZ-X700 (Keyence Corporation). […] Bright field images and fluorescence images of the target cells were taken at a high magnification of 40× or 100×. Commercially available filters for BZ-X700 were used for fluorescence detection. A GFP filter for BZ-X (green channel, OP-87763, Ex 470/40 nm, Em 525/50 nm, DM 495 nm) was used for fluorescence observation of 2-NBDLG. […]"}, "[2]": {"test_system": "cells in peritoneal washing obtained during an operation of a patient with endometrial cancer (endometrial endometrioid adenocarcinoma)", "test": "Live-cell fluorescence imaging by perfusion, cells in peritoneal washing, endometrial cancer patient (Example 5)", "type": "cell-based, human", "settings": "cell clusters a and b (apparent mesothelial cells and apparent macrophage cells); perfusion 100 μM 2-NBDLG and 20 μM 2TRLG; FIG. 11A/11B, 12D", "method": "A peritoneal washing obtained immediately after the start of laparotomy for endometrial cancer (endometrial endometrioid adenocarcinoma) in the same manner as in Example 1 was added to a 50 mL centrifuge tube having 5 mL of the Hanks solution in advance. Fibrin, fat, and impurities were removed from the ascitic fluid suspension in the same manner as in Example 4. Subsequently, a half of it was dispensed into a 50 mL centrifuge tube, and centrifuged at 1500 G for 2 minutes at room temperature. The supernatant was processed in the same manner as in Example 4 to obtain 1 mL of an ascites-cell suspension. • (2) Adhesion of Ascites Cells on Glass Plate by Centrifugation, and Method of Maintaining Cell Viability\nThe ascites-cell suspension in an amount of 1 mL taken at (1) was transferred to a plastic chamber dedicateded for CF-12D as in Example 4. The ascites cells were allowed to attach on a glass plate by centrifugation at 1400 rpm for 1 minute at room temperature. The plate was then treated as in Example 4, and stored in a moisture chamber until being mounted on the perfusion stage. • (3) Attachment of Glass Plate on Perfusion Stage and Perfusion […]\nIt was performed as in Example 4. Only a green fluorescence image was taken before administration of the fluorescently labeled L-glucose derivative. […]"}, "glucose transporter GLUT": {"test_system": "glucose transporter GLUT", "settings": "cited from earlier work"}, "cultured cells": {"test_system": "cultured cells", "settings": "2-TRLG and 2-NBDLG applied together to cultured cells; cited from earlier work"}},
  "note": "“Also recorded” adds a separate entry of the source.",
  "data": [
    {"smiles": "O=C[C@@H](Nc1ccc([N+](=O)[O-])c2nonc12)[C@H](O)[C@@H](O)[C@@H](O)CO", "note": "[2-NBDLG, 2-[N-(7-nitrobenz-2-oxa-1,3-diazole-4-yl)amino]-2-deoxy-L-glucose]", "values": [
      {"measurement": "fluorescence from 2-NBDLG (green wavelength region)", "setting": "[1]; apparent peritoneal mesothelial cells", "result": "do not show fluorescence"},
      {"measurement": "fluorescence from 2-NBDLG (green wavelength region)", "setting": "[1]; morphologically suspected cancer cells", "result": "intense fluorescence"},
      {"measurement": "fluorescence from 2-NBDLG (green wavelength region), after vs before application", "setting": "[2]", "result": "Neither the cell cluster a nor b shows fluorescence; also recorded: negative"},
      {"measurement": "binding to glucose transporter GLUT", "setting": "glucose transporter GLUT", "result": "does not bind"},
      {"measurement": "uptake into cells having damaged plasma membranes or showing nonspecific uptake such as phagocytosis", "setting": "cultured cells", "result": "taken up into cells having damaged plasma membranes"}
    ]}
  ]
}
